These results are taken from ChEMBL document CHEMBL1141951, “Anti-malarial activity of Baylis-Hillman adducts from substituted 2-chloronicotinaldehydes” (Bioorg Med Chem Lett, 2005).

Holding throughout (assay type): functional, organism-based
Experiment [1] concerns Plasmodium falciparum. Description: Antimalarial activity as reduced schizont maturation against chloroquine-sensitive Plasmodium falciparum FDL-B after 24 hrs.
For experiment [2], the system named is Plasmodium falciparum. Briefly: Antimalarial activity as growth inhibition after 48 hrs against chloroquine-resistant Plasmodium falciparum FDL-NG.
In experiment [3] the test system is Plasmodium falciparum. Briefly: Antimalarial activity as reduced schizont maturation after 24 hrs against chloroquine-resistant Plasmodium falciparum FDL-NG.
In experiment [4] the test system is Plasmodium falciparum. Briefly: Antimalarial activity as growth inhibition after 48 hrs against chloroquine-sensitive Plasmodium falciparum FDL-B.

≈ marks a conversion by molar mass, not a printed value.

What is called IC50 is the concentration that inhibits the measured activity by half. Higher therefore signals weaker potency. Consider `C=C(C#N)C(O)c1cc(C)cnc1Cl` (centres undefined), for which the IC50 in the experiment on Plasmodium falciparum [1] was found to be 1.25 µg/mL (≈ 5.99 µM); with Plasmodium falciparum [2], 10.5 µg/mL (≈ 50.3 µM); with Plasmodium falciparum [3], 22.5 µg/mL (≈ 108 µM); in the experiment on Plasmodium falciparum [4], 1.3 µg/mL (≈ 6.23 µM).
For `C=C(C(=O)OC)C(O)c1cc(-c2ccccc2)cnc1Cl` (centres undefined), the IC50 in the experiment on Plasmodium falciparum [1] amounted to 45 µg/mL (≈ 148 µM); with Plasmodium falciparum [2], 10.8 µg/mL (≈ 35.4 µM); in the experiment on Plasmodium falciparum [3] it was 5 µg/mL (≈ 16.5 µM); with Plasmodium falciparum [4], 115 µg/mL (≈ 379 µM).
The like results for `C=C(C#N)C(O)c1ccc(C(=O)OC)nc1Cl` (centres undefined) were, in that order, 3.4 µg/mL (≈ 13.5 µM), 6.75 µg/mL (≈ 26.7 µM), 5.75 µg/mL (≈ 22.8 µM) and 7 µg/mL (≈ 27.7 µM).
In general, IC90 refers to the point of the concentration-response curve where the effect stands at 90%. Low values mean an effect from little substance, high ones a need for much substance. For `C=C(C(=O)OC)C(O)c1cc(C)cnc1Cl` (centres undefined), the half-maximal inhibitory concentration (IC50) amounted to 18 µg/mL (≈ 74.5 µM) in the experiment with Plasmodium falciparum [1], 5.75 µg/mL (≈ 23.8 µM) with Plasmodium falciparum [2], 3.05 µg/mL (≈ 12.6 µM) in the experiment with Plasmodium falciparum [3] and 28.5 µg/mL (≈ 118 µM) with Plasmodium falciparum [4]. Also, the 90% effect concentration (IC90) was found to be 32 µg/mL (≈ 132 µM) in the experiment with Plasmodium falciparum [1], 27.5 µg/mL (≈ 114 µM) in the experiment with Plasmodium falciparum [2] and 7 µg/mL (≈ 29 µM) in the experiment with Plasmodium falciparum [3].
For the molecule `C=C(C#N)C(O)c1cc(CC)cnc1Cl` (centres undefined), the concentration for half-maximal inhibition (IC50) was determined as 1.8 µg/mL (≈ 8.08 µM) with Plasmodium falciparum [1], 5.5 µg/mL (≈ 24.7 µM) in the experiment with Plasmodium falciparum [2], 2.5 µg/mL (≈ 11.2 µM) with Plasmodium falciparum [3] and 4 µg/mL (≈ 18 µM) with Plasmodium falciparum [4].
The like results for `C=C(C#N)C(O)c1cc(-c2ccccc2)cnc1Cl` (centres undefined) were, in that order, 3.6 µg/mL (≈ 13.3 µM), 2.2 µg/mL (≈ 8.13 µM), 0.9 µg/mL (≈ 3.32 µM) and 8 µg/mL (≈ 29.6 µM).
For the molecule `CCN(CC)CCCC(C)Nc1ccnc2cc(Cl)ccc12` (centres undefined) [CHLOROQUINE], the IC90 with Plasmodium falciparum [1] was found to be 0.018 µg/mL (≈ 0.0563 µM); in the experiment with Plasmodium falciparum [4], 0.02 µg/mL (≈ 0.0625 µM).
